Experimental data taken from patent US20250295683A1, “HETEROCYCLIC COMPOUND, PREPARATION METHOD THEREFOR AND APPLICATION THEREOF” (SICHUAN KELUN-BIOTECH BIOPHARMACEUTICAL CO., LTD., priority 2022, published 2025).

How the values were obtained:
whole blood of rat = assay: Fibrinolysis effect shown by thromboelastography (TEG) with u-PA; conditions: for Ma (strength of the blood clot formed): rat whole blood; for Thrombolytic activity compared with the positive compound: according to the Ma values and thromboelastograms
Experimental: Main Instruments and Reagents: thromboelastography TEG (Udibio); urokinase-type plasminogen activator (u-PA) (Aladdin); reagent 1 (the main component is kaolin); reagent 2 (main component is calcium chloride).
• (1) Test group setting: uPA group: urokinase-type plasminogen activator (u-PA) (1000 U/ml); positive compound/compound 2-1/compound 2-2 group: test compound (200 μM)+u-PA (1000 U/ml); blank group: vehicle. • (2) Formulation of compound solution: the compound was formulated using a 0.5 mg/ml trometamol solution to obtain a 4 mM mother solution, adjusted to pH 9, and diluted to a 2 mM 10× mother solution. The final test concentration was 200 μM. u-PA was formulated as a 50,000 U/ml mother solution using normal saline, and diluted to a 10,000 U/ml 10× mother solution. The final test concentration was 1000 U/ml. • (3) Test: 100 μL of u-PA was added to a sample cup (containing reagent 1) containing 800 μL of the whole blood of rat (anticoagulated with sodium citrate), 100 μL of the test compound was added, and the cup was inverted to mix well. 340 μL of the sample from the sample cup was added to the reaction cup containing 20 μL of reagent 2, and the instrument was allowed to run. The results are shown in Table 2-1, Table 2-2, Table 2-3, FIG. 1, FIG. 2 and FIG. 3. The compound concentration as shown in Table 2-1, Table 2-2, FIG. 1 and FIG. 2 was 200 μM; and the compound concentration as shown in Table 2-3 and FIG. 3 was 100 μM.

Plasminogen (Glu-Typ) = biological target: T1, Plasminogen (Glu-Typ) (Homo sapiens, UniProt P00747); assay: Activation effect of the compounds on plasminogen (Glu-Typ), u-PA / VLK-pNA kinetic assay; type: biochemical; conditions: for Activation multiples (5 min): slope of A405 vs t^2 divided by slope of control group; for Activation potency on plasminogen compared with the positive compound: at the same concentration
T1 construct: Plasminogen (Glu-Typ) (sigma); purchased sigma (plasminogen); Aladdin (u-PA)
Experimental: (1) Formulation of Compounds The test compounds of the present invention and the positive compound are all set at three concentration points, i.e., 200 μM, 150 μM and 100 μM, respectively; the final concentration in DMSO was 2.5%.
Plasminogen (Glu-Typ) (sigma); urokinase-type plasminogen activator (u-PA) (Aladdin); vLK-pNA (absin); Multifunctional microplate reader (Thermo).
Plasminogen, the urokinase-type Plasminogen activator (u-PA) and VLK-pNA were formulated in a buffer [Tris-HCl (50 mM, pH 7.4)+NaCl (100 mM)+Tween-80 (0.01%)] to obtain mother solutions at concentrations of 100 nM (5×), 100 IU/ml (5×), and 5 mM (5×), respectively. 20 μl of 5× Plasminogen (Glu-Typ), 20 μl of 5× urokinase-type Plasminogen activator (u-PA) and 20 μl of 5×VLK-pNA were added to a 96-well plate. After mixing uniformly, 40 μl of the test compounds or positive compound were added to the 96-well plate, and a control group (no compound) was set up. The mixture was uniformly mixed well. The kinetic detection was performed using a Thermo multifunctional microplate reader, the detection wavelength was 405 nm, and the activation factor was calculated.
The following results were obtained by plotting the absorbance value at 405 nm (A405) versus time squared (t^2), using the slope of the curve for analysis, and calculating the activation multiples by dividing the slope of the compound group by the slope of the control group (see Table 1-1 and Table 1-2).

[1] = in vivo; cited from earlier work
[2] = stroke resulting from acute occlusion of large vessels; cited from earlier work
[3] = Table 2-1, compound 200 μM + u-PA 1000 U/ml
[4] = Table 2-2, compound 200 μM + u-PA 1000 U/ml
[5] = Table 2-3, compound 100 μM + u-PA 1000 U/ml

T1 sequence (P00747 20-810 limits assumed): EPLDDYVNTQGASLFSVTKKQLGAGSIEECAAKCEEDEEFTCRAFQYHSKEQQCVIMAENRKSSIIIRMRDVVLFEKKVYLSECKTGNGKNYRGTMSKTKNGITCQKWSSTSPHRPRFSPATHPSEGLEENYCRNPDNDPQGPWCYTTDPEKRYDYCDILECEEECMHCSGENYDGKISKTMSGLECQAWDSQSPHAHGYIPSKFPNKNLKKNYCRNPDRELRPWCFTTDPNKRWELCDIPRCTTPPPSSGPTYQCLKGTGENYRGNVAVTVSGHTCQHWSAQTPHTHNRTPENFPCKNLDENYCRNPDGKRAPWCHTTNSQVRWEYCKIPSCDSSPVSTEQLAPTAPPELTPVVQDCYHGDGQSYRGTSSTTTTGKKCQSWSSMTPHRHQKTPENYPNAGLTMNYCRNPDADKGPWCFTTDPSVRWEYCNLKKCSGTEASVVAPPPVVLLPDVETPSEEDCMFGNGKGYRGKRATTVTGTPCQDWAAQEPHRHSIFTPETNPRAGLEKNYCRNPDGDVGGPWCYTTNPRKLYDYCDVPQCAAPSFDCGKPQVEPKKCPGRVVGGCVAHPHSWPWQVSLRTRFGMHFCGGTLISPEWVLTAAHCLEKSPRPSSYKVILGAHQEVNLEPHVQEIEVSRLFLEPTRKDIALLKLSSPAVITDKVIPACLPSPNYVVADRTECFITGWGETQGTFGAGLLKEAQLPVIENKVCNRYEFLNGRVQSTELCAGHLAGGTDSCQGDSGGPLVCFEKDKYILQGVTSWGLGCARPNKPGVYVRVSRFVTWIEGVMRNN

Molecule | Ma (strength of the blood clot formed) (whole blood of rat; [3]) | Thrombolytic activity compared with the positive compound (whole blood of rat) | Activation multiples (5 min) (Plasminogen (Glu-Typ); Table 1-1, compound 100 μM) | Activation multiples (5 min) (Plasminogen (Glu-Typ); Table 1-1, compound 150 μM) | Activation multiples (5 min) (Plasminogen (Glu-Typ); Table 1-1, compound 200 μM) | Activation potency on plasminogen compared with the positive compound (Plasminogen (Glu-Typ)) | Ma (strength of the blood clot formed) (whole blood of rat; [4]) | Activation multiples (5 min) (Plasminogen (Glu-Typ); Table 1-2, compound 100 μM) | Activation multiples (5 min) (Plasminogen (Glu-Typ); Table 1-2, compound 150 μM) | Activation multiples (5 min) (Plasminogen (Glu-Typ); Table 1-2, compound 200 μM) | Ma (strength of the blood clot formed) (whole blood of rat; [5]) | half-life [1] | recanalization rate after intravenous thrombolysis [2]
CC(C)=CCC/C(C)=C/CC[C@@]1(C)Oc2c(c(OC(=O)N(C)C)cc3c2CN(CCC[C@@H](C(=O)O)N2Cc4c(cc(OC(=O)N(C)C)c5c4O[C@](C)(CC/C=C(\C)CCC=C(C)C)[C@@H](O)C5)C2=O)C3=O)C[C@@H]1O [Compound 2-1, (S)-2,5-bis((2R,3S)-5-((dimethylcarbamoyl)oxy)-2-((E)-4,8-dimethylnona-3,7-dien-1-yl)-3-hydroxy-2-methyl-7-oxo-3,4,7,9-tetrahydropyrano[2,3-E]isoindol-8(2H)-yl)pentanoic acid] | 4.7 mm | superior thrombolytic activity to the positive compound | 5.22 | 15.93 | 42.97 | better activation potency on plasminogen than the positive compounds |  |  |  |  |  |  | 
CC(C)=CCC/C(C)=C/CC[C@@]1(C)Oc2c(c(OC(=O)N3CCOCC3)cc3c2CN(CCC[C@@H](C(=O)O)N2Cc4c(cc(OC(=O)N5CCOCC5)c5c4O[C@](C)(CC/C=C(\C)CCC=C(C)C)[C@@H](O)C5)C2=O)C3=O)C[C@@H]1O [Compound 2-2, (S)-2,5-bis((2R,3S)-2-((E)-4,8-dimethylnona-3,7-dien-1-yl)-3-hydroxy-2-methyl-5-((morpholino-4-carbonyl)oxy)-7-oxo-3,4,7,9-tetrahydropyrano[2,3-e]isoindol-8(2H)-yl)pentanoi c acid] | 4.7 mm | superior thrombolytic activity to the positive compound | 6.66 | 21.12 | 42.23 | better activation potency on plasminogen than the positive compounds |  |  |  |  |  |  | 
CC(C)=CCC/C(C)=C/CC[C@@]1(C)Oc2c(c(OC(=O)N3CCS(=O)(=O)CC3)cc3c2CN(CCC[C@@H](C(=O)O)N2Cc4c(cc(OC(=O)N5CCS(=O)(=O)CC5)c5c4O[C@](C)(CC/C=C(\C)CCC=C(C)C)[C@@H](O)C5)C2=O)C3=O)C[C@@H]1O [Compound 2-5, (S)-2,5-bis((2R,3S)-2-((E)-4,8-dimethylnona-3,7-dien-1-yl)-5-((1,1-dioxothiomorpholino-4-carbonyl)oxy)-3-hydroxy-2-methyl-7-oxo-3,4,7,9-tetrahydropyrano[2,3-E]isoindol-8(2H)-yl)pentanoic acid] |  | superior thrombolytic activity to the positive compound |  |  |  | better activation potency on plasminogen than the positive compounds | 1.9 mm | 4.65 | 52.96 | 90.00 |  |  | 
CC(C)=CCC/C(C)=C/CC[C@@]1(C)Oc2c(c(OC(=O)N3CC[S+]([O-])CC3)cc3c2CN(CCC[C@@H](C(=O)O)N2Cc4c(cc(OC(=O)N5CC[S+]([O-])CC5)c5c4O[C@](C)(CC/C=C(\C)CCC=C(C)C)[C@@H](O)C5)C2=O)C3=O)C[C@@H]1O [Compound 2-6, (S)-2,5-bis((2R,3S)-2-((E)-4,8-dimethylnona-3,7-dien-1-yl)-5-((1-oxothiomorpholino-4-carbonyl)oxy)-3-hydroxy-2-methyl-7-oxo-3,4,7,9-tetrahydropyrano[2,3-E]isoindol-8(2H)-yl)pentanoic acid] |  | superior thrombolytic activity to the positive compound |  |  |  |  |  |  |  |  | 8.8 mm |  | 
CC(C)=CCC/C(C)=C/CC[C@@]1(C)Oc2c(c(O)cc3c2CN(CCC[C@@H](C(=O)O)N2Cc4c(cc(O)c5c4O[C@](C)(CC/C=C(\C)CCC=C(C)C)[C@@H](O)C5)C2=O)C3=O)C[C@@H]1O [Positive compound, reference compound] | 72.9 mm |  | 1.71 | 2.62 | 8.62 |  | 73.1 mm | 3.02 | 4.54 | 12.49 | 76.4 mm |  | 
rt-PA: Recombinant tissue plasminogen activator |  |  |  |  |  |  |  |  |  |  |  | 3 to 5 min | ≤ 25%
